Experimental data from PMC3989846 (Malaria Journal, 2014).

Columns and labels:
[1] = test system: P. berghei ANKA blood stage parasitaemia; test: Blood stage infection by flow cytometry (FCM) and causal prophylaxis outcome after sporozoite challenge; assay type: in vivo, Plasmodium berghei; conditions: for Effects: CP = causal prophylaxis; for Blood Infection by FCM: infected/challenged mice
Procedure: Novel and control anti-malarials were administered orally on days -1, 0, and 1 with respect to sporozoite inoculation. […] Additionally, blood stage infections were measured by flow cytometry. Positive and negative controls were used for the IVIS calibration in each test.
Causal prophylactic effects and delay in onset of parasitaemia in animals treated with TQ and PQ (Figure 1) were assessed in these experiments, which included a positive control, 4-methyl-PQ. All dosing was conducted based on the body weight at the time of preparation of the dosing solution. […] Each animal received 0.1 - 0.2 ml of the oral solutions, delivered via an intragastric feeder (18-gauge) to the designated recipient. Stock solutions of test compounds were prepared fresh daily by grinding the needed amount of drug in cold (4°C) 0.5% (w/v) hydroxyethyl cellulose and 0.2% (v/v) Tween-80 (0.5% HECT) and diluting the resulting solution at variable concentrations. C57BL/6 albino mice were challenged intravenously with 50,000 luciferase-expressing P. berghei sporozoites extracted from the salivary glands of heavily infected An. stephensi mosquitoes. […] At day 5–30 after infection, the same mice were analysed for blood stage infection by determination of the course of parasitaemia of tail blood by flow cytometry using an FC500 flow cytometer (Beckman-Coulter Co. CA).
At day 5–30 after infection, the same mice were analysed for blood stage infections by quantitation of malaria parasites by flow cytometry (FCM). All FCM analyses were carried out with a FC500 MPL flow cytometer (Beckman Coulter, Fullerton, CA), which conducts five-colour analysis from either single or dual laser excitation. Infected erythrocytes, uninfected erythrocytes, and leukocytes were gated on logarithmic forward/side dot plots. Cells were analysed at an average rate of 2,000-3,000 erythrocytes/s. Filters were placed before the green (FL-1) and red (FL-2) photomultiplier tubes (PMTs) such that the green PMT registered fluorescence emission between 520 and 555 nm, and the red PMT measured emission greater than 580 nm.
A drop of blood (3 μL) from the mouse tail was collected directly into 0.3 ml of 1% heparinized isotonic buffer (PBS saline). In this study, 1 ml 0.04% of glutaraldehyde was used for fixation and the samples were then incubated at 4°C for 60 minutes. The cells were centrifuged at 450 × g for 5 min. […] After centrifugation, the permeabilized cells were re-suspended in 0.5 ml of RNAse at 1 mg/ml concentrations and incubated for at least 2 hours at 37°C to ensure complete digestion of reticulocytes. Plasmodium berghei infection in mice results in anaemia which then results in reticulocytosis. Therefore, high RNAse concentrations for digesting large amounts of reticulocytes RNA were required for assessment of parasitaemia in this mouse model.
In the in vivo imaging experiments, causal prophylaxis activity, sporontocidal activity, parasite clearance, causal cure, delays in patency, and time to recrudescence were calculated as described previously. The minimum curative dose (MCD100) in 100% animals was defined as the lowest dose, which cured all animals (>5 animals) in a group at any time during the first 30 days of the follow-up period. […] Means and standard deviations of photon measurement were calculated. Blood stage infection was defined as two positive blood samples by flow cytometry, taken daily apart. The negative blood samples were monitored until day 15 after inoculation. Coefficients of variation were calculated as a percentage by dividing the standard deviation by the mean value.

[2] = set-up: method as in PMID 9598455; conditions: cited from earlier work
[3] = set-up: method as in PMID 15378438, PMID 10479159; conditions: cited from earlier work
[4] = set-up: method as in PMID 9598455; conditions: simulated gastric fluid; cited from earlier work
[5] = 5 mg/kg oral, 3 days (-1, 0, 1)
[6] = 10 mg/kg oral, 3 days (-1, 0, 1)
[7] = 15 mg/kg oral, 3 days (-1, 0, 1)
[8] = 20 mg/kg oral, 3 days (-1, 0, 1)
[9] = 25 mg/kg oral, 3 days (-1, 0, 1)
[10] = 25 mg/kg single oral dose on day 0
[11] = 25 mg/kg single oral dose on day -1
[12] = 1.25 mg/kg oral, 3 days (-1, 0, 1)
[13] = 5 mg/kg single oral dose on day 0
[14] = 5 mg/kg single oral dose on day -1

SMILES: COc1cc(NC(C)CCCN)c2ncccc2c1 (centres unmarked) [Primaquine, primaquine]
- Effects [1, 5]: Suppression
- Blood Infection by FCM [1, 5]: 5/5
- Effects [1, 6]: Partial CP
- Blood Infection by FCM [1, 6]: 5/10
- Effects [1, 7]: Partial CP
- Blood Infection by FCM [1, 7]: 4/20
- Effects [1, 8]: Partial CP
- Blood Infection by FCM [1, 8]: 1/10
- Delay in patency (days after onset in controls) ([1]; 20 mg/kg oral, 3 days (-1, 0, 1), per infected mouse): 6 days
- Effects [1, 9]: Full CP
- Blood Infection by FCM [1, 9]: 0/10
- Effects [1, 10]: Suppression
- Blood Infection by FCM [1, 10]: 5/5
- Effects [1, 11]: Suppression
- Blood Infection by FCM [1, 11]: 5/5
- blood stage parasitaemia 5–30 days after infection ([1]; single oral dose 25 mg/kg): severe parasitaemia
- dose excreted as unchanged drug in the urine [2]: less than 1%

SMILES: COc1cc(C)c2c(Oc3cccc(C(F)(F)F)c3)c(OC)cc(NC(C)CCCN)c2n1 (centres unmarked) [Tafenoquine, tafenoquine]
- Number of C57BL/albino mice Causal prophylaxis [1, 12]: 1/5
- Number of C57BL/albino mice Protected completely [1, 12]: 1
- Effects [1, 12]: Suppression
- Blood Infection by FCM [1, 12]: 4/5
- Number of C57BL/albino mice Causal prophylaxis [1, 5]: 13/13
- Number of C57BL/albino mice Protected completely [1, 5]: 13
- Effects [1, 5]: Full CP
- Blood Infection by FCM [1, 5]: 0/13
- Number of C57BL/albino mice Causal prophylaxis [1, 13]: 1/5
- Number of C57BL/albino mice Protected completely [1, 13]: 1
- Effects [1, 13]: Partial CP
- Blood Infection by FCM [1, 13]: 4/5
- Number of C57BL/albino mice Causal prophylaxis [1, 14]: 10/10
- Number of C57BL/albino mice Protected completely [1, 14]: 10
- Effects [1, 14]: Full CP
- Blood Infection by FCM [1, 14]: 0/10
- Blood Infection by FCM ([1]; 5 mg/kg single oral dose on day -1, listed as TQ): no blood stage parasitaemia
- Number of C57BL/albino mice Causal prophylaxis [1, 6]: 5/5
- Number of C57BL/albino mice Protected completely [1, 6]: 5
- Effects [1, 6]: Full CP
- Blood Infection by FCM [1, 6]: 0/5
- Number of C57BL/albino mice Causal prophylaxis ([1]; […] oral, 3 days (-1, 0, 1)): 3/5
- Number of C57BL/albino mice Protected completely ([1]; […] oral, 3 days (-1, 0, 1)): 3
- minimal curative single oral dose ([1]; single oral dose, causal prophylaxis in mice): 5 mg/kg
- causal activity ([1]; three oral doses: TQ 5 mg/kg, PQ 25 mg/kg): 100%
- half-life [3]: approximately 14 days
- time to complete dissolution [4]: ≤ 30 min
